From the NIST ThermoML archive (doi:10.1021/acs.jced.6b00120)

Assay: xn = mol fraction of the nth substance listed
Conditions: Gas, Buoyancy - hydrostatic balance with magnetic suspension - two sinkers, x1 = 0.05049

[Ar] [argon] + O=C=O
Conditions	mass density [kg/m3]
273.15 K, 526.54 kPa	10.5097
273.15 K, 1045.7 kPa	21.6518
273.15 K, 2054.6 kPa	46.254
273.15 K, 2521.6 kPa	59.4639
273.15 K, 2948.2 kPa	72.995
283.15 K, 487.17 kPa	9.32016
283.15 K, 1034 kPa	20.4562
283.15 K, 2045.6 kPa	43.428
283.15 K, 3054.1 kPa	70.7119
283.15 K, 4058.4 kPa	105.393
293.15 K, 501.22 kPa	9.23865
293.15 K, 1009.9 kPa	19.1313
293.15 K, 2033.5 kPa	40.9568
293.15 K, 3031.1 kPa	65.5032
293.15 K, 4032.7 kPa	95.0463
293.15 K, 5045.2 kPa	133.561
293.15 K, 5530.5 kPa	157.768
308.15 K, 493.91 kPa	8.62503
308.15 K, 996.02 kPa	17.7876
308.15 K, 2002.5 kPa	37.5504
308.15 K, 3004.5 kPa	59.5083
308.15 K, 4005.8 kPa	84.4871
308.15 K, 5012.9 kPa	113.924
308.15 K, 6005.3 kPa	149.364
308.15 K, 6991.8 kPa	195.441
308.15 K, 7418.4 kPa	221.117
308.15 K, 7793.4 kPa	248.529
323.15 K, 521.21 kPa	8.65936
323.15 K, 1030.2 kPa	17.4463
323.15 K, 2009.8 kPa	35.3997
323.15 K, 3012.4 kPa	55.4385
323.15 K, 4030.3 kPa	77.9178
323.15 K, 5045.6 kPa	103.062
323.15 K, 6032.4 kPa	130.908
323.15 K, 7032.7 kPa	163.762
323.15 K, 8023.8 kPa	202.754
323.15 K, 8533.5 kPa	226.233
323.15 K, 8988 kPa	249.635
